Key:
[1] = target: T1, soluble ectodomain of sortilin-6his (Homo sapiens, UniProt Q99523, V650M); assay: MST binding to soluble ectodomain of sortilin-6his; conditions: Table 4; small molecule bifunctional compounds; MST; read-out: KD score, binding to sortilin (Kd)
T1 construct: the soluble ectodomain of sortilin-6his is measured by microscale thermophoresis (MST)

[2] = test system: HEK293 cells expressing full length sortilin receptor; assay: Cellular uptake of NA650 in HEK293/sortilin cells; assay type: cell-based; conditions: Table 6; NA650 (100 nM), 3 h, biotin warhead compounds
Description: Cellular uptake of NA650 was investigated in HEK293 cells expressing full length sortilin receptor (Petersen et. al.). Cells were seeded in poly-L-lysine coated 96-well plates (Perkin Elmer) (40K/well) in 50 μL culture medium (DMEM (Lonza)+10% FBS (SigmaAldrich)+1% penicillin-streptomycin (SigmaAldrich)+1% GlutaMAX (Gibco)+100 μg/mL Zeocin (Invitrogen)) and incubated overnight in cell incubator (37° C., humidified, 5% CO2).
Culture medium was replaced with assay medium (DMEM (Lonza)+10% fetal bovine serum (SigmaAldrich)+1% penicillin-streptomycin (SigmaAldrich)+1% GlutaMAX (Gibco)) containing NA650 (Invitrogen) (100 nM) (Thermo Fischer) and peptidic bifunctional compounds (9.8 nM to 10 μM). Cells were incubated for 3 h in cell incubator before they were washed in dPBS (Bionordika). The DyLight650 signal in the cell layer was detected using a fluorescence plate reader (BMG Labtech Clariostar).
Cellular uptake of NA650 was investigated in HEK293 cells expressing full length sortilin receptor using a methodology analogous to example 3.

[3] = target: T2, Streptavidin-d2 and Sortilin-6His (UniProt P22629+Q99523, V650M); assay: TR-FRET ternary complex formation streptavidin / small molecule bifunctional compound / sortilin; assay type: binding; conditions: Table 5; 5 μM-0.6 pM, […] incubation
T2 construct: ternary complex formation composed of streptavidin, bifunctional compound and sortilin-6his

[4] = target: TNFa-6His (Homo sapiens, UniProt P01375); assay: MST binding to TNFa-6his; conditions: Table 8, NTA labeled TNFa-6His (100 nM), read-out: KD (score), Kd of TNFalpha binding
Sequence of TNFa-6His (P01375 77-233 limits assumed): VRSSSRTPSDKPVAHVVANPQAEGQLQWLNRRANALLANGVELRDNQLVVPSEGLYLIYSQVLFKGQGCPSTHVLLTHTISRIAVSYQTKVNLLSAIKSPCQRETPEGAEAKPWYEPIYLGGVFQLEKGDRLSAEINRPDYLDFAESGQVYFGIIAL
Text: MST was measure analogously to example 1 using TNFa-6his.

T1 sequence (Q99523 with tags, fused parts or gaps V650M): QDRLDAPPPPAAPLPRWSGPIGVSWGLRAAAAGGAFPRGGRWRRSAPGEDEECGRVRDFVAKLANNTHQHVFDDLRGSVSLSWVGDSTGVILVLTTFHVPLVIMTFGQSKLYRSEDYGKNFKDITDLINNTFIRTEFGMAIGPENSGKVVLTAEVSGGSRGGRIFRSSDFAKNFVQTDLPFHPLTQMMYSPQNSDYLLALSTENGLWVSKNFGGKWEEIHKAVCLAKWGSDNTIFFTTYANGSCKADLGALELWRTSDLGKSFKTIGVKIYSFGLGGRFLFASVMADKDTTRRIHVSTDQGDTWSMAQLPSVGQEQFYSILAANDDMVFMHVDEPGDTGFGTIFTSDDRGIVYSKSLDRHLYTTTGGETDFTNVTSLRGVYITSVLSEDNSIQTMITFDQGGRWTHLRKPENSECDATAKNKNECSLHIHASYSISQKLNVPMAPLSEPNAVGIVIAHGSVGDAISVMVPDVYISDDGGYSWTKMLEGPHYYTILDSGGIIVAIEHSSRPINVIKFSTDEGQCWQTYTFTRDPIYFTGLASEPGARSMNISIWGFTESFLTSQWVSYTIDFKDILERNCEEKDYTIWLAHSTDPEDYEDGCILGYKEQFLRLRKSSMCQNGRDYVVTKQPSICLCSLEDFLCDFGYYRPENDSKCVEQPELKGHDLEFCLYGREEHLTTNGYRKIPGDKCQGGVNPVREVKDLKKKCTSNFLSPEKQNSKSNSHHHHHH

| Compound | Kd [1] | AUC score, target internalization [2] | AUC score, ternary complex formation [3] | Kd [4] |
| --- | --- | --- | --- | --- |
| CC(C)(C)CC[C@H](NC(=O)c1ccc(Oc2cccc(C(=O)NCCOCCOCCOCCOCCOCCOCCNC(=O)CCCC[C@@H]3SC[C@@H]4NC(=O)N[C@@H]43)c2)nc1)C(=O)O [BF023, (2S)-2-[[6-[3-[2-[2-[2-[2-[2-[2-[2-[5-[(3aS,4S,6aR)-2-oxo-1,3,3a,4,6,6a-hexahydrothieno[3,4-d]imidazol-4-yl]pentanoylamino]ethoxy]ethoxy]ethoxy]ethoxy]ethoxy]ethoxy]ethylcarbamoyl]phenoxy]pyridine-3-carbonyl]amino]-5,5-dimethyl-hexanoic acid] | 10 to 250 nM | + (AUC < 100) | + (AUC < 25.000) |  |
| CC(C)(C)CC[C@H](NC(=O)c1ccc(Oc2cccc(OCCOCCOCCOCCOCCOCCOCCOCCOCCNC(=O)CCCC[C@@H]3SC[C@@H]4NC(=O)N[C@@H]43)c2)nc1)C(=O)O [BF026, (2S)-2-[[6-[3-[2-[2-[2-[2-[2-[2-[2-[2-[2-[5-[(3aS,4S,6aR)-2-oxo-1,3,3a,4,6,6a-hexahydrothieno[3,4-d]imidazol-4-yl]pentanoylamino]ethoxy]ethoxy]ethoxy]ethoxy]ethoxy]ethoxy]ethoxy]ethoxy]ethoxy]phenoxy]pyridine-3-carbonyl]amino]-5,5-dimethyl-hexanoic acid] | 10 to 250 nM | ++ (AUC > 100) | ++ (AUC > 25.000) |  |
| Cc1nc2cc(F)c(-c3cnc(OCCCCCn4cc(COCCOCCOCCOCCNC(=O)c5ccc(Oc6cccc(OCC(=O)N[C@@H](CCC(C)(C)C)C(=O)O)c6)nc5)nn4)nc3)nc2c(N[C@H](C)c2cc(C#N)ccc2F)c1Cl [BF076] | 10 to 250 nM |  |  | < 2000 nM |
| Cc1nc2cc(F)c(-c3cnc(OCCOCCOCCOCCOCCOCCOCCNC(=O)c4ccc(Oc5cccc(OCC(=O)N[C@@H](CCC(C)(C)C)C(=O)O)c5)nc4)nc3)nc2c(N[C@H](C)c2cc(C#N)ccc2F)c1Cl [BF079] |  |  |  | < 2000 nM |
| Cc1cc(-c2ccc(OCC(=O)NCCOCCOCc3cn(CCCCCOc4ncc(-c5nc6c(N[C@@H](C)c7cc(C#N)ccc7F)c(Cl)c(C)nc6cc5F)cn4)nn3)cc2)cc(NC(=O)c2ccc(C(F)(F)F)cc2C(=O)O)n1 [BF080] | < 1 nM |  |  | < 2000 nM |
| C[C@@H]1CN(c2ncc(-c3ccc4c(n3)N(Cc3cccnc3C#N)C(C)(C)C4=O)cn2)CCN1C(=O)CNC(=O)CCCCCCCCCCn1cc(-c2cccc(Oc3ccc(C(=O)N[C@@H](CCC(C)(C)C)C(=O)O)cn3)c2)nn1 [BF081, (2S)-2-[[6-[3-[1-[11-[[2-[(2R)-4-[5-[1-[(2-cyano-3-pyridyl)methyl]-2,2-dimethyl-3-oxo-pyrrolo[2,3-b]pyridin-6-yl]pyrimidin-2-yl]-2-methyl-piperazin-1-yl]-2-oxo-ethyl]amino]-11-oxo-undecyl]triazol-4-yl]phenoxy]pyridine-3-carbonyl]amino]-5,5-dimethyl-hexanoic acid] | 1 to 10 nM |  |  | < 2000 nM |
| C[C@@H]1CN(c2ncc(-c3ccc4c(n3)N(Cc3cccnc3C#N)C(C)(C)C4=O)cn2)CCN1C(=O)CNC(=O)COCCOCCOCCOCCOc1cccc(Oc2ccc(C(=O)N[C@@H](CCC(C)(C)C)C(=O)O)cn2)c1 [BF082] | 1 to 10 nM |  |  | > 2000 nM |
| C[C@@H]1CN(c2ncc(-c3ccc4c(n3)N(Cc3cccnc3C#N)C(C)(C)C4=O)cn2)CCN1C(=O)CNC(=O)CCCCCOCCOCCNC(=O)c1cccc(Oc2ccc(C(=O)N[C@@H](CCC(C)(C)C)C(=O)O)cn2)c1 [BF0100] |  |  |  | < 2000 nM |
